Patent US20230278997A1, “BICYCLO[1.1.1]PENTANE COMPOUNDS FOR THE TREATMENT AND PROPHYLAXIS OF HEPATITIS B VIRUS INFECTION” (Hoffmann-La Roche Inc., priority 2020, published 2023)
Read-outs that look alike come from different tables or passages of the source.

Legend:
HBsAg = test: microbe, parasite or virus in culture; type: cell-based, HBV; conditions: Hepatitis B virus, read-out: HBsAg IC50
[1] = Human microsome stability assay; type: in vitro ADME; conditions: 1 μM compound, 0.5 mg/mL microsomal protein, 37° C.; detection limit 6.15 mL/min/kg
Method: Human Microsome Stability Assay The human microsomal stability assay is used for early assessment of metabolic stability of a test compound in human liver microsomes. Human liver microsomes (Cat. […] The reactions were initiated by adding NADPH regenerating system. […] Following precipitation and centrifugation, the amount of compound remaining in the samples were determined by LC-MS/MS. Controls of no NADPH regenerating system at zero and 30 minutes were also prepared and analyzed.

[2] = test system: primary human hepatocyte (PHH); test: Cytotoxicity in PHH natural infection assay (Cell Counting Kit-8); type: cell-based; conditions: therapeutic index; CC50 by CCK8 in PHH over HBsAg IC50
Method: Detailed procedures regarding primary human hepatocyte (PHH) HBV natural infection assay are described as below. One tube of frozen PHH (10 million cells) was thawed in 37° C. water bath and then transferred to 20 mL of PHH thawing medium (Sigma, InVitroGRO HT Medium, Cat. 503319) with gently mixing. The cells were then centrifuged at […] for 5 min, the supernatant was discarded and the tube was refilled with 25 mL of PHH plating medium (Sigma, InVitroGRO CP Medium, Cat. 503317). The tube was shaken very gently to re-suspend all cells, and then 50 μl of cells were transferred to each well of a 384-well collagen I coated plate with appropriate liquid handling equipment, e.g. Integra VIAFLO384 or Agilent Bravo. The cells were then cultured for 24 hours in a cell incubator. For HBV infection, after PHH attachment on the culture plate, the plating medium was removed and replenished with PHH culture medium containing HBV virus. The PHH culture medium was prepared with Dulbecco's Modified Eagle Medium (DMEM)/F12 (1:1 in volume ratio) containing 10% fetal bovine serum (Gibco, Cat.10099141), 5 ng/mL human epidermal growth factor (Gibco, Cat.PHG031 IL), 20 ng/mL dexamethasone (Sigma, Cat.D4902-100 mg), 250 ng/mL human recombinant insulin (Gibco, Cat.41400045) and 100 U/mL penicillin. HBV virus at 200 genome equivalent (GE) per cell with 4% PEG8000 (Sigma, Cat.P1458) containing culture medium were added to the PHH culture medium for infection. The cells were then cultured for 24 hours in cell incubator. Then the cell culture supernatant was removed. The HBV-infected PHH were cultured with sandwich culture method with PHH culture medium containing 1% DMSO and 0.25 mg/mL matrix gel for 72 hours. The supernatant was then refreshed with PHH culture medium containing different concentrations of testing compounds for two times with 72-hour interval. At the end of treatment, the supernatant was collected for viral markers measurements, including HBsAg, HBeAg, HBV DNA and cytotoxicity. HBsAg and HBeAg were detected using alphalisa method using their specific antibodies. For HBV DNA detection, HBV DNA Quantitative Fluorescence Diagnostic Kit (Sansure Biotech Inc.) was used following the manufacture's protocol. Cytotoxicity was determined using Cell Counting Kit-8 (CCK8, Dojindo Molecular Technologies, Inc.).

[3] = Single dose pharmacokinetics (PK) study in male C57BL/6 mouse; type: in vivo; conditions: for clearance / half-life / Vd / AUC(0-t): male; for clearance / half-life / Vd: C57BL/6, plasma; for clearance / half-life / Vd / F: mouse; for Vd: read-out: VSS; for AUC(0-t): C57BL/6, mouse plasma; for F: dose normalized AUC0-last
Method: Single Dose Pharmacokinetics (PK) Study in Male C57BL/6 Mouse Pharmacokinetic properties of selected compounds were assessed by single dose PK studies in Male C57BL/6 mouse (vendor: Beijing Vital River Laboratory Animal Technology Co., Ltd). Briefly, two groups of animals were administered a single dose of respective compound intravenously (IV, bolus) at 1 mg/kg or orally (PO, by gavage) at 10 mg/kg or 30 mg/kg. […] After centrifugation, the resulting plasma was transferred to clean tubes for bioanalysis with LC/MS/MS. The pharmacokinetic parameters were calculated using non-compartmental analysis. The volume of distribution (Vss), half-life (T1/2) and clearance (CL) were obtained based on the plasma concentration-time curve after IV dose. The peak concentration (Cmax) was recorded directly from experimental observations after PO dose. The area under the plasma concentration-time curve (AUC0-last and AUC0-24 h) was calculated using the linear trapezoidal rule up to the last detectable concentration. The bioavailability (F) was calculated based on the dose normalized AUC0-last after IV and PO dose. The Vss of a drug represents the degree to which a drug is distributed in body tissue rather than the plasma. Vss is directly proportional with the amount of drug distributed into tissue. A higher Vss indicates a greater amount of tissue distribution.

HBeAg = test: microbe, parasite or virus in culture; type: cell-based, HBV; conditions: Hepatitis B virus, read-out: HBeAg IC50
[4] = IV bolus 1 mg/kg, read-out: IV AUC0-24h
[5] = PO 30 mg/kg single dose, read-out: PO AUC0-24h
[6] = PO 10 mg/kg single dose, read-out: PO AUC0-24h

## CS(=O)(=O)C1(c2ccc(C(=O)NC34CC(c5nc(-c6ccc(Cl)cc6)cs5)(C3)C4)o2)CC1 [Example 1, N-[3-[4-(4-chlorophenyl)thiazol-2-yl]-1-bicyclo[1.1.1]pentanyl]-5-(1-methylsulfonylcyclopropyl)furan-2-carboxamide]
HBsAg
  IC50: 160 nM
[1]
  Clearance of human microsome: ≤6.15 mL/min/kg
[2]
  TI (CC50/IC50 HBsAg): 27.88
[3]; IV bolus 1 mg/kg
  clearance: 0.2 mL/min/kg
  half-life: 1420 min
  Vd: 0.4 L/kg
[3]; [4]
  AUC(0-t): 42.7 µg·h/mL
[3]; [5]
  AUC(0-t): 1310 µg·h/mL
[3]; PO 30 mg/kg vs IV
  F: 102%
HBeAg
  IC50: 120 nM

## CS(=O)(=O)C1(c2ccc(C(=O)NC34CC(c5cnn(-c6ccc(Cl)cc6)n5)(C3)C4)o2)CC1 [Example 30, N-[3-[2-(4-chlorophenyl)triazol-4-yl]-1-bicyclo[1.1.1]pentanyl]-5-(1-methylsulfonylcyclopropyl)furan-2-carboxamide]
HBsAg
  IC50: 60 nM
[1]
  Clearance of human microsome: ≤6.15 mL/min/kg
[2]
  TI (CC50/IC50 HBsAg): 148.67
[3]; IV bolus 1 mg/kg
  clearance: 0.19 mL/min/kg
  half-life: 2900 min
  Vd: 0.74 L/kg
[3]; [4]
  AUC(0-t): 27 µg·h/mL
[3]; [5]
  AUC(0-t): 370 µg·h/mL
[3]; PO 30 mg/kg vs IV
  F: 46%
HBeAg
  IC50: 40 nM

## CS(=O)(=O)C1(c2ccc(C(=O)NC34CC(c5nc(-c6ccc(Cl)cc6)no5)(C3)C4)o2)CC1 [Example 32, N-[3-[3-(4-chlorophenyl)-1,2,4-oxadiazol-5-yl]-1-bicyclo[1.1.1]pentanyl]-5-(1-methylsulfonylcyclopropyl)furan-2-carboxamide]
HBsAg
  IC50: 40 nM
[1]
  Clearance of human microsome: ≤6.15 mL/min/kg
[2]
  TI (CC50/IC50 HBsAg): 112.00
[3]; IV bolus 1 mg/kg
  clearance: 0.43 mL/min/kg
  half-life: 1070 min
  Vd: 0.64 L/kg
[3]; [4]
  AUC(0-t): 24.1 µg·h/mL
[3]; [5]
  AUC(0-t): 249 µg·h/mL
[3]; PO 30 mg/kg vs IV
  F: 35%
HBeAg
  IC50: 40 nM

## CS(=O)(=O)Cc1nsc(C(=O)NC23CC(c4nc(-c5ccc(Cl)cc5)no4)(C2)C3)n1 [Example 33, N-[3-[3-(4-chlorophenyl)-1,2,4-oxadiazol-5-yl]-1-bicyclo[1.1.1]pentanyl]-3-(methylsulfonylmethyl)-1,2,4-thiadiazole-5-carboxamide]
HBsAg
  IC50: 440 nM
[1]
  Clearance of human microsome: ≤6.15 mL/min/kg
[2]
  TI (CC50/IC50 HBsAg): >22.73
HBeAg
  IC50: 370 nM

## CS(=O)(=O)C1(c2nsc(C(=O)NC34CC(c5nc(-c6ccc(F)cc6)no5)(C3)C4)n2)CC1 [Example 35, N-[3-[3-(4-fluorophenyl)-1,2,4-oxadiazol-5-yl]-1-bicyclo[1.1.1]pentanyl]-3-(1-methylsulfonylcyclopropyl)-1,2,4-thiadiazole-5-carboxamide]
HBsAg
  IC50: 50 nM
[1]
  Clearance of human microsome: ≤6.15 mL/min/kg
[2]
  TI (CC50/IC50 HBsAg): 79.80
HBeAg
  IC50: 40 nM

## CS(=O)(=O)C1(c2ccc(C(=O)NC34CC(c5noc(-c6ccc(Cl)cc6)n5)(C3)C4)o2)CC1 [Example 40, N-[3-[5-(4-chlorophenyl)-1,2,4-oxadiazol-3-yl]-1-bicyclo[1.1.1]pentanyl]-5-(1-methylsulfonylcyclopropyl)furan-2-carboxamide]
HBsAg
  IC50: 140 nM
[1]
  Clearance of human microsome: ≤6.15 mL/min/kg
[2]
  TI (CC50/IC50 HBsAg): 46.00
[3]; IV bolus 1 mg/kg
  clearance: 0.85 mL/min/kg
  half-life: 720 min
  Vd: 0.83 L/kg
[3]; [4]
  AUC(0-t): 14.9 µg·h/mL
[3]; [5]
  AUC(0-t): 80.8 µg·h/mL
[3]; PO 30 mg/kg vs IV
  F: 18%
HBeAg
  IC50: 100 nM

## CS(=O)(=O)C1(c2nsc(C(=O)NC34CC(c5noc(-c6ccc(Cl)cc6)n5)(C3)C4)n2)CC1 [Example 41, N-[3-[5-(4-chlorophenyl)-1,2,4-oxadiazol-3-yl]-1-bicyclo[1.1.1]pentanyl]-3-(1-methylsulfonylcyclopropyl)-1,2,4-thiadiazole-5-carboxamide]
HBsAg
  IC50: 130 nM
[1]
  Clearance of human microsome: 14.14 mL/min/kg
[2]
  TI (CC50/IC50 HBsAg): 65.54
[3]; IV bolus 1 mg/kg
  clearance: 0.11 mL/min/kg
  half-life: 4040 min
  Vd: 0.62 L/kg
[3]; [4]
  AUC(0-t): 34 µg·h/mL
[3]; [6]
  AUC(0-t): 59.7 µg·h/mL
[3]; PO 10 mg/kg vs IV 1 mg/kg
  F: 18%
HBeAg
  IC50: 80 nM

## CS(=O)(=O)C1(c2ccc(C(=O)NC34CC(c5ccn(-c6ccc(Cl)cc6)n5)(C3)C4)o2)CC1 [Example 42, N-[3-[1-(4-chlorophenyl)pyrazol-3-yl]-1-bicyclo[1.1.1]pentanyl]-5-(1-methylsulfonylcyclopropyl)furan-2-carboxamide]
HBsAg
  IC50: 590 nM
[1]
  Clearance of human microsome: 8.21 mL/min/kg
[2]
  TI (CC50/IC50 HBsAg): 13.39
HBeAg
  IC50: 340 nM

## CS(=O)(=O)C1(c2nsc(C(=O)NC34CC(c5ccn(-c6ccc(Cl)cc6)n5)(C3)C4)n2)CC1 [Example 43, N-[3-[1-(4-chlorophenyl)pyrazol-3-yl]-1-bicyclo[1.1.1]pentanyl]-3-(1-methylsulfonylcyclopropyl)-1,2,4-thiadiazole-5-carboxamide]
HBsAg
  IC50: 90 nM
[1]
  Clearance of human microsome: ≤6.15 mL/min/kg
[2]
  TI (CC50/IC50 HBsAg): >111.11
HBeAg
  IC50: 80 nM

## CS(=O)(=O)C1(c2ccc(C(=O)NC34CC(c5nnn(-c6ccc(Cl)cc6)n5)(C3)C4)o2)CC1 [Example 44, N-[3-[2-(4-chlorophenyl)tetrazol-5-yl]-1-bicyclo[1.1.1]pentanyl]-5-(1-methylsulfonylcyclopropyl)furan-2-carboxamide]
HBsAg
  IC50: 350 nM
[1]
  Clearance of human microsome: ≤6.15 mL/min/kg
[2]
  TI (CC50/IC50 HBsAg): 12.20
HBeAg
  IC50: 270 nM

## CS(=O)(=O)C1(c2ccc(C(=O)NC34CC(c5ccnc(-c6ccc(Cl)cc6)n5)(C3)C4)o2)CC1 [Example 47, N-[3-[2-(4-chlorophenyl)pyrimidin-4-yl]-1-bicyclo[1.1.1]pentanyl]-5-(1-methylsulfonylcyclopropyl)furan-2-carboxamide]
HBsAg
  IC50: 150 nM
[1]
  Clearance of human microsome: ≤6.15 mL/min/kg
[2]
  TI (CC50/IC50 HBsAg): 59.67
HBeAg
  IC50: 140 nM

## CS(=O)(=O)C1(c2nsc(C(=O)NC34CC(c5ccnc(-c6ccc(Cl)cc6)n5)(C3)C4)n2)CC1 [Example 48, N-[3-[2-(4-chlorophenyl)pyrimidin-4-yl]-1-bicyclo[1.1.1]pentanyl]-3-(1-methylsulfonylcyclopropyl)-1,2,4-thiadiazole-5-carboxamide]
HBsAg
  IC50: 70 nM
[1]
  Clearance of human microsome: 10.71 mL/min/kg
[2]
  TI (CC50/IC50 HBsAg): 127.43
[3]; IV bolus 1 mg/kg
  clearance: 0.07 mL/min/kg
  half-life: 3220 min
  Vd: 0.29 L/kg
[3]; [4]
  AUC(0-t): 70.2 µg·h/mL
[3]; [6]
  AUC(0-t): 629 µg·h/mL
[3]; PO 10 mg/kg vs IV 1 mg/kg
  F: 92%
HBeAg
  IC50: 70 nM
